Laboratory results: patent US6355635B1, “Compounds for the treatment of obesity” (Pfizer Inc., priority 1999, dated 2002)

Tested on: endogenous NPY response
Assay: Endogenous NPY response in Bowes melanoma host cells
Conditions: 10 uM; human Bowes melanoma cells (HMCB), low levels of Y1 responses
Procedure: This plasmid construct is used along with calcium phosphates to stably transfect human Bowes melanoma cells (HMCB; obtained from ATCC, Rockville, Md.), a cell line in which several Gαi-linked receptors are expressed at reasonable levels and are coupled to functional responses. Cells are maintained at 37° C. and 5% CO2 in Eagle's minimum essential medium with 0.1 mM non-essential amino acids, 1.0 mM sodium pyruvate and 25 mM HEPES which is supplemented with 10% fetal bovine serum (pH 7.3).

NC(N)=NCCC[C@@H](NC(=O)C(c1ccccc1)c1ccccc1)C(=O)NCc1ccc(O)cc1 [BIBP3226]
block of the endogenous NPY response: completely blocks
